According to patent US10131661B2, “High-solubility acetone-added pyrroloquinoline quinone salt” (Mitsubishi Gas Chemical Company, Inc., priority 2015, dated 2018):
In brackets after ≈: the same amount, converted by molar mass.

Key:
[1] = Storage stability in a solid state, visual check after 1 month; type: physicochemical
Description: The HOP alkali metal salt fabricated in each Example was subjected to cold storage (4° C.) and room-temperature storage (23° C.) in a solid state, and changes after a lapse of 1 month were visually checked.

[2] = system: Human uterine cancer cells, HeLa cells; assay: Cell activity test (cell number by Cell Counting Kit 8); type: cell-based; conditions: 2 days
Description: Human uterine cancer cells, HeLa cells, were scattered on 96 wells so as to be 1,000 cells/well, and were cultivated in a DMEM (Invitrogen Corp.)+10% FBS culture medium under the condition of a 5% CO2 concentration and 37° C. in an incubator for one night. Thereafter, the HOP alkali metal salt fabricated in each Example was added to the culture medium so that the concentration of the HOP alkali metal salt became 4.9 mg/L and 19.5 mg/L. Further the cultivation was continued further for 2 days, and thereafter, the culture medium was removed from the wells; the well interiors were washed; and the number of the cells in the wells were measured by using a Cell Counting Kit 8 manufactured by Dojindo Laboratories. There are shown in the following Table the results in the case where the number of the cells when no HOP alkali metal salt was added to the culture medium was taken to be 100.

physchem = conditions: 30 °C, water, thermodynamic from solid
Description: (§1) Water in such an amount that the HOP alkali metal salt fabricated in each Example remained undissolved was added to 100 mg of the HOP alkali metal salt. The resultant solution was allowed to stand still at 30° C. for 1 hour or more. Then, the solution was centrifugally separated to thereby separate a supernatant liquid and the HOP alkali metal salt remaining undissolved, and thereafter, the supernatant was diluted and the absorbance at 360 nm was measured. The solubility was calculated from the obtained absorbance.

[3] = Chemical stability: color change on mixing with ascorbic acid aqueous solution; type: physicochemical; conditions: 10 mg sample, 200 μl of 10 mass % ascorbic acid aqueous solution
Description: [Chemical Stability] The HOP disodium fabricated in Example 1 and pyrroloquinoline quinone disodium were tested. 10 mg of the each sample was put in a test tube, and 200 μl of a 10 mass % ascorbic acid aqueous solution was mixed.

[4] = Measurement of the solubility (30° C.) of a HOP alkali metal salt to water; conditions: 1 hour or more, absorbance at 360 nm
Description: as §1

Molecule | Cold Storage (4° C.): visual change [1] | Room-Temperature Storage (23° C.): visual change [1] | also measured
CC(=O)CC1(O)C(=O)c2cc(C(=O)[O-])[nH]c2-c2c(C(=O)[O-])cc(C(=O)[O-])nc21.[Li+].[Li+].[Li+] (racemic) [HOP trilithium] | no change | – | –
CC(=O)CC1(O)C(=O)c2cc(C(=O)[O-])[nH]c2-c2c(C(=O)[O-])cc(C(=O)[O-])nc21.[Na+].[Na+].[Na+] (racemic) [HOP trisodium] | no change | change to brown | number of the cells (no addition taken to be 100) ([2]; 4.9 mg/L): 128; number of the cells (no addition taken to be 100) ([2]; 19.5 mg/L): 121
CC(=O)CC1(O)C(=O)c2cc(C(=O)O)[nH]c2-c2c(C(=O)O)cc(C(=O)O)nc21 (centres unmarked) [HOP free form, 5-Hydroxy-4-oxo-5-(2-oxopropyl)-4,5-dihydro-1H-pyrrolo[2,3-f]quinoline-2,7,9-tricarboxylic acid, reference compound] | no change | – | solubility (physchem): 2.9 mM (≈ 1130 µg/mL); number of the cells (no addition taken to be 100) ([2]; 4.9 mg/L): 95; number of the cells (no addition taken to be 100) ([2]; 19.5 mg/L): 103
CC(=O)CC1(O)C(=O)c2cc(C(=O)[O-])[nH]c2-c2c(C(=O)[O-])cc(C(=O)[O-])nc21.[K+].[K+].[K+] (centres unmarked) [HOP tripotassium] | no change | – | –
O=C(O)c1cc(C(=O)O)c2c(n1)C(=O)C(=O)c1cc(C(=O)O)[nH]c1-2.[Na].[Na] [PQQ disodium, pyrroloquinoline quinone disodium, reference compound] | – | – | color change with ascorbic acid [3]: changed in the color to black; solubility (physchem): 7.5 mM
O=C(O)c1cc(C(=O)O)c2c(n1)C(=O)C(=O)c1cc(C(=O)O)[nH]c1-2 [PQQ free form, pyrroloquinoline quinone] | – | – | solubility (physchem): 1 mM (≈ 330 µg/mL)
O=C(O)c1cc(C(=O)O)c2c(n1)C(=O)C(=O)c1cc(C(=O)O)[nH]c1-2 [PQQ trisodium, reference compound] | – | – | Saturated Solubility [4]: 35 mM
HOP 2.5 sodium | no change | no change | –
HOP 2.9 sodium | no change | no change | –
HOP dilithium | no change | no change | –
HOP dipotassium | no change | no change | –
HOP disodium | no change | no change | color change with ascorbic acid [3]: no large change in the color; number of the cells (no addition taken to be 100) ([2]; 4.9 mg/L): 116; number of the cells (no addition taken to be 100) ([2]; 19.5 mg/L): 130; Saturated Solubility [4]: 290 mM
HOP disodium hydrogen carbonate cocrystal | no change | no change | –
HOP trisodium hydrogen carbonate cocrystal | no change | no change | –
